Assay [1] concerns Escherichia coli 205. Nature of the assay: Antibiotic activity in vitro, agar dilution method in DST agar (MIC). Format: cell-based. As to conditions: for MIC: Escherichia coli, 205. An excerpt: (§1) A. Die antibiotische Aktivität der Testverbindungen in vitro wurde durch die Agarverdünnungsmethode nach Ericsson, H.M., und Sherris, S.C., 1971, Acta Path. Microb. Scand. Section B, Suppl. No. 217, Bd. 1-90, in DST Agar ermittelt. Die gefundenen, das Wachstum der Testorganismen noch hemmenden Minimalkonzentrationen (MIC = minimum inhibiting concentrations) werden in Mikrogramm pro Milliliter […] für die geprüften Verbindungen in der Tabelle 1 angegeben.

Assay [2] has as its system Klebsiella pneumoniae 327. Described as above. As to conditions: for MIC: Klebsiella pneumoniae, 327. The class given is cell-based.
From the text: as §1

The subject of assay [3] is Pseudomonas aeruginosa 799/61. The description is as above. The class given is cell-based. Conditions: for MIC: Pseudomonas aeruginosa, 799/61.
From the text: as §1

Assay [4] deals with Salmonella typhimurium 277. The description is as above. Conditions: for MIC: Salmonella enterica, TYPHIMURIUM
The class given is cell-based.
From the text: as §1

The test system of assay [5] is Escherichia coli 205. Nature of the assay: Chemotherapeutic efficacy in vivo against systemic infection in mice (ED50). As to conditions: s.c., female SPF MF2 mice; for ED50: Escherichia coli, 205, sc. An excerpt: (§2) B. Die chemotherapeutische Wirksamkeit in vivo gegen systemische Infektionen in weiblichen SPF, MF2 Mäusen wurde nach der Methode von Zak., 0., et al., 1979, Drugs Exptl. Clin. Res. 5, 45-59, ermittelt. Die gefundenen ED50-Werte in Milligramm Substanz pro Kilogramm Maus (mg/kg) für eine Anzahl von Mikroorganismen werden für die oral (p.o.) oder subcutan (s.c.) applizierten Testverbindungen in der Tabelle 2 angegeben.

The next assay concerns Proteus morganii 2359. Described as above. Conditions: s.c., female SPF MF2 mice; for ED50: Morganella morganii, 2359, sc.
From the text: as §2

The test system of assay [6] is Staphylococcus anvens 10B. Described as above. Conditions: female SPF MF2 mice; for ED50: Staphylococcus, 10B, sc.
From the text: as §2

The text below walks through data of patent EP0059683A2, “7-Acylamido-3-cephem-4-carboxylic acids, process for their preparation, pharmaceutical compositions containing them and their use” (CIBA-GEIGY AG, priority 1981, dated 1982).

In brackets after ≈: the same amount, converted by molar mass.

Take `CC(=O)OCC1=C(C(=O)O)N2C(=O)[C@@H](NC(=O)CCCNC(=O)OC[C@@H](N)C(=O)O)[C@H]2SC1` [Testverbindung 29]: the MIC came to 32 µg/mL (≈ 65.5 µM) in the assay with Escherichia coli 205 [1], 4 µg/mL (≈ 8.19 µM) in assay [2], 1 µg/mL (≈ 2.05 µM) in assay [3] and 2 µg/mL (≈ 4.09 µM) in assay [4]. For the same compound, the ED50 in the assay with Escherichia coli 205 [5] is 7 mg/kg; with Proteus morganii 2359, 75 mg/kg; in assay [6] it was over 30 mg/kg.
As for `NC(=O)c1cc[n+](CC2=C(C(=O)[O-])N3C(=O)[C@@H](NC(=O)C(NC(=O)OC[C@@H](N)C(=O)O)c4csc(N)n4)[C@H]3SC2)cc1` (stereo partly drawn) [Testverbindung 26], the MIC came to 0.2 µg/mL (≈ 0.322 µM) against Escherichia coli 205 [1], 0.5 µg/mL (≈ 0.806 µM) in assay [2], 0.5 µg/mL (≈ 0.806 µM) in assay [3] and 0.2 µg/mL (≈ 0.322 µM) in assay [4]. The values for the ED50 (in the assay on Escherichia coli 205 [5]; with Proteus morganii 2359; in assay [6]) were 9 mg/kg, 10 mg/kg and 15 mg/kg, respectively.
As to `CO[C@@]1(NC(=O)CCCNC(=O)OC[C@@H](N)C(=O)O)C(=O)N2C(C(=O)O)=C(CSc3nnnn3C)CS[C@@H]21` [Testverbindung 28], the MIC was determined as 1 µg/mL (≈ 1.74 µM) in the assay with Escherichia coli 205 [1], 0.5 µg/mL (≈ 0.87 µM) in assay [2], 0.2 µg/mL (≈ 0.348 µM) in assay [3] and 0.5 µg/mL (≈ 0.87 µM) in assay [4]. In addition, the results for the ED50 (in the assay on Escherichia coli 205 [5]; with Proteus morganii 2359; in assay [6]) were 4 mg/kg, 5 mg/kg and over 30 mg/kg, respectively.
As to `CO[C@@]1(NC(=O)CCCNC(=O)OC[C@@H](N)C(=O)O)C(=O)N2C(C(=O)O)=C(COC(C)=O)CS[C@@H]21` [Testverbindung 27], the MIC against Escherichia coli 205 [1] amounted to 1 µg/mL (≈ 1.93 µM); in assay [2], 1 µg/mL (≈ 1.93 µM); in assay [3] it was 0.5 µg/mL (≈ 0.964 µM); in assay [4] it was 1 µg/mL (≈ 1.93 µM). The figures for the ED50 (in the assay with Escherichia coli 205 [5]; with Proteus morganii 2359; in assay [6]) were 14 mg/kg, 8 mg/kg and over 30 mg/kg, respectively.
Consider `Cn1nnnc1SCC1=C(C(=O)O)N2C(=O)[C@@H](NC(=O)CCCNC(=O)OC[C@@H](N)C(=O)O)[C@H]2SC1` [Testverbindung 30], for which the minimum inhibitory concentration (MIC) against Escherichia coli 205 [1] is 2 µg/mL (≈ 3.67 µM); in assay [2], 0.5 µg/mL (≈ 0.918 µM); in assay [3], 0.5 µg/mL (≈ 0.918 µM); in assay [4] it was 0.5 µg/mL (≈ 0.918 µM). Besides, the ED50 with Escherichia coli 205 [5] is 1.7 mg/kg; in the assay on Proteus morganii 2359 it was 10 mg/kg; in assay [6], over 30 mg/kg.
For the compound `NC(=O)c1cc[n+](CC2=C(C(=O)[O-])N3C(=O)C(NC(=O)C(NC(=O)OC[C@@H](N)C(=O)O)c4csc(N)n4)C3SC2)cc1` (stereo partly drawn) [Testverbindung 26, 3-(4-Carbamoylpyridiniomethyl)-7β-[(2R,S)-2-((2R)-2-amino-2-car-boxyäthoxycarbonylamino)-2-(2-aminothiazol-4-yl)-acetamido]-3-cephem-4-carboxylat], the “MIC Escherichia coli 205” value in the assay with Escherichia coli 205 [1] is reported as 0,1 µg/ml. Moreover, the “MIC Klebsiella pneumoniae 327” value in assay [2] is recorded as 0,1 µg/ml. In assay [3], the “MIC Pseudomonas aeruginosa 799/61” value was 0,5 µg/ml. Besides, the “MIC Salmonella typhimurium 277” value in assay [4] is 0,1 µg/ml. The “ED50 Escherichia coli 205” value with Escherichia coli 205 [5] amounted to 1 mg/kg. In the assay on Proteus morganii 2359, the “ED50 Proteus morganii 2359” value worked out at 70 mg/kg. The “ED50 Staphylococcus anvens 10B” value in assay [6] (s.c.) is over 30 mg/kg.
